# Experimental data from patent publication US20070232575A1, “Treatment of Pulmonary Artery Hypertension with Dhea, Dheas, Dhea Analogs, or Dhea Derivatives” (priority 2004, published 2007).
# Several values for one entry are separate records, joined by “and”; a condition that tells them apart may be missing. Equal entries are not always repeated. Entries after “also recorded” stand apart in the source; their conditions may differ.
# What was measured:
# PASMCs from CH rats = assay: In vitro DHEA treatment of PASMCs, resting [Ca2+]i, with K channel blockers and pathway inhibitors; type: cell-based, rat; conditions: for effect on the DHEA-induced [Ca2+]i decrease: DHEA plus blocker/inhibitor: IbTx, agitoxin-2, ODQ 10 μM, genistein 1 μM, 476485 1 μM, DTT
# Protocol: The heart and lungs were removed and intrapulmonary arteries (IPAs) (150-300 μm of internal diameter) were then dissected. The adventitial and intimal layers were removed. For contraction experiments, rings (3 mm in length) were prepared.
# As mentioned earlier, Ca^2+ is thought to play an important role in the response to chronic hypoxia. To measure the effects of DHEA on [Ca^2+]i of individual PASMCs, a [Ca^2+]i-sensitive fluorophore, indo-1 (Calbiochem, San Diego, Calif.), was employed. […] The recording system included a Nikon Diaphot inverted microscope fitted with epifluorescence.
# To further examine how DHEA functions to decrease the [Ca^2+]i in PASMCs, the following experiment was performed.
# [1] = tested on: chronic hypoxic-pulmonary artery hypertension (CH-PAH); assay: Mean pulmonary arterial pressure (PAP) in chronic hypoxic (CH-PAH) rat model; type: in vivo; conditions: for effect on PAP, i.v. administration: 3 mg/kg, same intravascular protocol as for DHEA, CH-DHEA rats (so in the source); for reversal of PA hypertension: in contrast to testosterone, estradiol, pregnenolone, protocol not restated
# Protocol: To study the mechanisms of PAH and its possible treatments, an animal model was utilized. The placement of rats in a hypobaric chamber for 7 to 21 days induced chronic hypoxia, resulting in CH-PAH, a useful model system for studying mammalian PAH.
# The rat model experiments were performed as follows. Adult male Wistar rats (220-240 g) were randomized into five groups. […] Intravascular administration was performed via the catheter inserted in the right jugular vein.
compound,measurement,setting,value
"iberiotoxin (QFTDVDCSVSKECWSVCKDLFGVDRGKCMGKKCRCYQ; UniProt P24663 1-37, looked up) [IbTx]",inhibition of the DHEA-induced change of resting [Ca2+]i,"PASMCs from CH rats; DHEA 100 μM and IbTx 100 nM, 10 min, PASMCs from CH rats",62% and 65%
same,effect on the DHEA-induced [Ca2+]i decrease,PASMCs from CH rats,blocked
agitoxin-2,effect on the DHEA-induced [Ca2+]i decrease,PASMCs from CH rats,no effect
C[C@]12CC[C@H]3[C@@H](CCC4=CC(=O)CC[C@@]43C)[C@@H]1CC[C@@H]2O [testosterone],"effect on PAP, i.v. administration",[1],did not reveal any effect
"O=c1onc2cnc3ccccc3n12 [ODQ, 1H-[1,2,4]oxadiazolol[4,3,-a]quinoxalin-1-one]",effect on the DHEA-induced [Ca2+]i decrease,PASMCs from CH rats,did not alter; also recorded: no effect
"O=c1c(-c2ccc(O)cc2)coc2cc(O)cc(O)c12 [genistein, Genistein]",effect on the DHEA-induced [Ca2+]i decrease,PASMCs from CH rats,did not alter; also recorded: no effect
CC(=O)[C@H]1CC[C@H]2[C@@H]3CC=C4C[C@@H](O)CC[C@]4(C)[C@H]3CC[C@]12C [pregnenolone],"effect on PAP, i.v. administration",[1],did not reveal any effect
"Nc1ccncc1 [4-AP, 4-amino-pyridine]",block of the DHEA-induced [Ca2+]i decrease,PASMCs from CH rats; combined IbTx 100 nM and 4-AP 1 mM,100%
same,effect on the DHEA effect on resting [Ca2+]i,PASMCs from CH rats; combined presence of 4-AP and IbTx,almost totally abolished
"C[C@]12CC[C@H]3[C@@H](CC=C4C[C@@H](O)CC[C@@]43C)[C@@H]1CC[C@@H]2O [5-androsten-3β,17β-diol]",reversal of PA hypertension,[1],did reverse PA hypertension
C[C@H]1CC[C@@]2(C)C(=CC[C@@H]3[C@@H]2CC[C@]2(C)C(=O)CC[C@@H]32)C1 [3βmethyl-5-androsten-17-one],reversal of PA hypertension,[1],did reverse PA hypertension
C[C@]12CC[C@H](O)C[C@@H]1CC[C@@H]1[C@@H]2CC[C@]2(C)C(=O)CC[C@@H]12 [3β-hydroxy-5α-androstan-17-one],reversal of PA hypertension,[1],did reverse PA hypertension
O[C@@H](CS)[C@@H](O)CS [DTT],effect on the DHEA-induced [Ca2+]i decrease,PASMCs from CH rats,totally inhibited; also recorded: suppressed; also recorded: inhibits the effect of DHEA
same,elevation of the resting [Ca2+]i,"PASMCs from CH rats; DTT with DHEA, PASMCs",23 nM
